The compounds below were run on RKO p21 uninduced (proliferating) colon adenocarcinoma cells (assay: Alamar Blue cell viability assay, RKO p21 uninduced (proliferating)). Conditions: Homo sapiens, Table B3, anti-proliferative/cytotoxic activity, 72 hours, read-out: −log EC50 RKO p21 uninduced (proliferating) (converted).
Format: cell-based
How it was run: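 Viability read by Alamar Blue fluorescence (ex 544, em 590 nm), normalised to untreated wells, after 72 h, 37° C, 5% CO2 compound exposure in triplicate. Cells were uninduced (no Ponasterone A), proliferating RKO colon carcinoma p27 or p21 subclones in DMEM with 10% FCS; values are −log EC50 (mol/l).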

Row | Compound | EC50 [nM]
1 | C[C@@]12Cc3c([nH]c4cc(F)c(Cl)cc34)[C@@H](c3cccc(O)c3)N1C(=O)N(CCCN1CC=CC1)C2=O (racemic) [Example 477, (3aSR,10RS)-6-Chloro-2-[3-(2,5-dihydro-pyrrol-1-yl)-propyl]-7-fluoro-10-(3-hydroxy-phenyl)-3a-methyl-3a,4,9,10-tetrahydro-2,9,10a-triaza-cyclopenta[b]fluorene-1,3-dione] | 39.8 to 251
2 | COc1ccc2[nH]c3c(c2c1)C[C@@]1(C)C(=O)N(CCCN(C)CCO)C(=O)N1[C@@H]3c1cccc(O)c1 [Example 542, (3aS,10R)-2-{3-[(2-Hydroxy-ethyl)-methyl-amino]-propyl}-10-(3-hydroxy-phenyl)-6-methoxy-3a-methyl-3a,4,9,10-tetrahydro-2,9,10a-triaza-cyclopenta[b]fluorene-1,3-dione] | ≤ 39.8
3 | CC(C)N(C)CCCN1C(=O)N2[C@H](c3cccc(O)c3)c3[nH]c4cc(F)c(Cl)cc4c3C[C@@]2(C)C1=O (racemic) [Example 474, (3aSR,10RS)-6-Chloro-7-fluoro-10-(3-hydroxy-phenyl)-2-[3-(isopropyl-methyl-amino)-propyl]-3a-methyl-3a,4,9,10-tetrahydro-2,9,10a-triaza-cyclopenta[b]fluorene-1,3-dione] | ≤ 39.8
4 | C[C@@]12Cc3c([nH]c4ccc(OC(F)F)cc34)[C@@H](c3cccc(O)c3)N1C(=O)N(CCCN1CCOCC1)C2=O (racemic) [Example 236, (3aSR,10RS)-6-(1,1-Difluoro-methoxy)-10-(3-hydroxy-phenyl)-3a-methyl-2-(3-morpholin-4-yl-propyl)-3a,4,9,10-tetrahydro-2,9,10a-triaza-cyclopenta[b]fluorene-1,3-dione] | 39.8 to 251
5 | C#CCN(C)CCN1C(=O)N2[C@H](c3cccc(O)c3)c3[nH]c4ccc(Br)cc4c3C[C@@]2(C)C1=O (racemic) [Example 382, (3aSR,10RS)-6-Bromo-10-(3-hydroxy-phenyl)-3a-methyl-2-[2-(methyl-prop-2-ynyl-amino)-ethyl]-3a,4,9,10-tetrahydro-2,9,10a-triaza-cyclopenta[b]fluorene-1,3-dione] | 39.8 to 251
6 | CCN(CCOC)CCN1C(=O)N2[C@H](c3cccc(O)c3)c3[nH]c4cc(F)c(Cl)cc4c3C[C@@]2(C)C1=O (racemic) [Example 350, (3aSR,10RS)-6-Chloro-2-{2-[ethyl-(2-methoxy-ethyl)-amino]-ethyl}-7-fluoro-10-(3-hydroxy-phenyl)-3a-methyl-3a,4,9,10-tetrahydro-2,9,10a-triaza-cyclopenta[b]fluorene-1,3-dione] | 39.8 to 251
7 | C[C@@]12Cc3c([nH]c4ccc(Br)cc34)[C@@H](c3cccc(O)c3)N1C(=O)N(CCN1CCCC1)C2=O (racemic) [Example 389, (3aSR,10RS)-6-Bromo-10-(3-hydroxy-phenyl)-3a-methyl-2-(2-pyrrolidin-1-yl-ethyl)-3a,4,9,10-tetrahydro-2,9,10a-triaza-cyclopenta[b]fluorene-1,3-dione] | ≤ 39.8
8 | CCN(C)CCN1C(=O)N2[C@H](c3cccc(O)c3)c3[nH]c4ccc(OC(F)F)cc4c3C[C@@]2(C)C1=O (racemic) [Example 275, (3aSR,10RS)-6-(1,1-Difluoro-methoxy)-2-[2-(ethyl-methyl-amino)-ethyl]-10-(3-hydroxy-phenyl)-3a-methyl-3a,4,9,10-tetrahydro-2,9,10a-triaza-cyclopenta[b]fluorene-1,3-dione] | ≤ 39.8
9 | CCNCCN1C(=O)N2[C@H](c3cccc(O)c3)c3[nH]c4cc(F)c(OC)cc4c3C[C@@]2(C)C1=O (racemic) [Example 249, (3aSR,10RS)-2-(2-Ethylamino-ethyl)-7-fluoro-10-(3-hydroxy-phenyl)-6-methoxy-3a-methyl-3a,4,9,10-tetrahydro-2,9,10a-triaza-cyclopenta[b]fluorene-1,3-dione] | ≤ 39.8
10 | COc1cc2c3c([nH]c2cc1F)[C@@H](c1cccc(O)c1)N1C(=O)N(CCCN(C)C(C)C)C(=O)[C@]1(C)C3 (racemic) [Example 319, (3aSR,10RS)-7-Fluoro-10-(3-hydroxy-phenyl)-2-[3-(isopropyl-methyl-amino)-propyl]-6-methoxy-3a-methyl-3a,4,9,10-tetrahydro-2,9,10a-triaza-cyclopenta[b]fluorene-1,3-dione] | 39.8 to 251
11 | C=CCNCCCN1C(=O)N2[C@H](c3cccc(O)c3)c3[nH]c4cc(F)c(Cl)cc4c3C[C@@]2(C)C1=O (racemic) [Example 465, (3aSR,10RS)-2-(3-Allylamino-propyl)-6-chloro-7-fluoro-10-(3-hydroxy-phenyl)-3a-methyl-3a,4,9,10-tetrahydro-2,9,10a-triaza-cyclopenta[b]fluorene-1,3-dione] | 39.8 to 251
12 | C[C@@]12Cc3c([nH]c4ccc(OC(F)F)cc34)[C@@H](c3cccc(O)c3)N1C(=O)N(CCCN1CCCC1)C2=O (racemic) [Example 237, (3aSR,10RS)-6-(1,1-Difluoro-methoxy)-10-(3-hydroxy-phenyl)-3a-methyl-2-(3-pyrrolidin-1-yl-propyl)-3a,4,9,10-tetrahydro-2,9,10a-triaza-cyclopenta[b]fluorene-1,3-dione] | ≤ 39.8
13 | C=CCN(C)CCN1C(=O)N2[C@H](c3cccc(O)c3)c3[nH]c4ccc(Br)cc4c3C[C@@]2(C)C1=O (racemic) [Example 381, (3aSR,10RS)-2-[2-(Allyl-methyl-amino)-ethyl]-6-bromo-10-(3-hydroxy-phenyl)-3a-methyl-3a,4,9,10-tetrahydro-2,9,10a-triaza-cyclopenta[b]fluorene-1,3-dione] | 39.8 to 251
14 | CCN(C)CCCN1C(=O)N2[C@H](c3cccc(O)c3)c3[nH]c4ccc(Br)cc4c3C[C@@]2(C)C1=O (racemic) [Example 216, (3aSR,10RS)-6-Bromo-2-[3-(ethyl-methyl-amino)-propyl]-10-(3-hydroxy-phenyl)-3a-methyl-3a,4,9,10-tetrahydro-2,9,10a-triaza-cyclopenta[b]fluorene-1,3-dione] | ≤ 39.8
15 | COc1cc2c3c([nH]c2cc1F)[C@@H](c1cccc(O)c1)N1C(=O)N(CCNCC(C)C)C(=O)[C@]1(C)C3 (racemic) [Example 252, (3aSR,10RS)-7-Fluoro-10-(3-hydroxy-phenyl)-2-(2-isobutylamino-ethyl)-6-methoxy-3a-methyl-3a,4,9,10-tetrahydro-2,9,10-triaza-cyclopenta[b]fluorene-1,3-dione] | 39.8 to 251
16 | CCOc1ccc2[nH]c3c(c2c1)C[C@@]1(C)C(=O)N(CCN(C)CCO)C(=O)N1[C@@H]3c1cccc(O)c1 (racemic) [Example 297, (3aSR,10RS)-6-Ethoxy-2-{2-[(2-hydroxy-ethyl)-methyl-amino]-ethyl}-10-(3-hydroxy-phenyl)-3a-methyl-3a,4,9,10-tetrahydro-2,9,10a-triaza-cyclopenta[b]fluorene-1,3-dione] | 39.8 to 251
17 | C=CCNCCCN1C(=O)N2[C@H](c3cccc(O)c3)c3[nH]c4ccc(OC)cc4c3C[C@@]2(C)C1=O [Example 533, (3aS,10R)-2-(3-Allylamino-propyl)-10-(3-hydroxy-phenyl)-6-methoxy-3a-methyl-3a,4,9,10-tetrahydro-2,9,10a-triaza-cyclopenta[b]fluorene-1,3-dione] | ≤ 39.8

Source: patent US8530493B2, “Indolopyridines as Eg5 kinesin modulators” (4SC AG, priority 2006, dated 2013)
